# Like-named read-outs stand apart in the source and are kept apart here.
# Legend:
# Ggt [1] = assay: In vitro assay: inhibition of mycelial growth of Ggt on minimal media agar; assay type: cell-based, Gaeumannomyces graminis var. tritici; conditions: Gaeumannomyces graminis, read-out: % Control of Ggt In Vitro
# Protocol: The test compounds (0.25 mL of an appropriate stock solution in acetone) were incorporated into 25 mL minimal media agar [prepared by autoclaving a solution of 17.5 g Czapek Dox broth (Difco), 7.5 g purified agar or Bacto-agar (Difco), and 500 mL distilled/deionized water, and then adding 50 μL of 1 mg/mL thiamine hydrochloride and 50 μL of 1 mg/mL biotin in 5% ethanol] and plates were prepared.
# Each plate was inoculated by placing in a triangular shape three 4 mm plugs of Ggt grown on the minimal media agar described above. The plates were incubated in the dark at 19-20° C. for 4-5 days. The growth of the fungus was measured as the diameter of the mycelial growth and the result expressed as Percent Inhibition, calculated as [1−[(mm growth on treated plate−4)/(mm growth on control plate−4)]]×100.
# Ggt [2] = assay: 4 Week In Vivo Seed Treatment Assay on "Bergen" wheat in soil infested with Ggt; design: species or system Gaeumannomyces graminis var. tritici
# Protocol: The test compounds were tested for control of Ggt on “Bergen” varieties of wheat grown in 3 inch square pots containing soil (equal to thirds of Metro-mix, sand, and silt-loam filed soil, all steam sterilized). Seeds were treated with a solution of a test compound in acetone. Using a 10,000 ppm stock for each compound, the following serial dilutions were prepared.
# When 1 mL of the stock and dilutions was applied to 10 gm of seed, the resultant application rates were 100 and 25 g of active ingredient per 100 kg of seed.
# A treatment jar was rinsed 2 times with 3 mL of acetone. The 1 mL of the solution was swirled to cover the base of the jar. 10 gm of seed was added to the jar and capped, after which the jar was swirled and shaken until the seeds got a rapid and even coverage. After about 30-50 seconds, the lid was removed while the shaking was continued. After 1 minute, the jar was set aside to dry. When dry, the seed was poured into an envelope for storage until planting.
# Compounds were tested for control of Ggt on “Bergen” varieties of wheat grown in 3 inch square pots containing soil infested with Ggt. The infestation was accomplished by mixing the soil with an inoculum prepared by growing Ggt on infested sterile oats (400 cc whole oats, 350 mL deionized water, autoclaved). After a one month incubation period at room temperature, the oats were dried and mixed with the soil at 4% v/v.
# The roots were harvested, washed, and rated after 4 weeks. Each treatment was assigned a percent (%) diseased root area value using 1, 5, 10, 20, 30, 40, 50, 60, 80, or 100% ratings. Each pot of plants got a single rating.
# [3] = 0.01 ppm in agar, 4-5 days at 19-20° C.
# [4] = 0.1 ppm in agar, 4-5 days at 19-20° C.
# [5] = 1 ppm in agar, 4-5 days at 19-20° C.
# [6] = 10 ppm in agar, 4-5 days at 19-20° C.
# [7] = 25 g ai/100 kg seed, roots rated after 4 weeks
# [8] = 100 g ai/100 kg seed, roots rated after 4 weeks
SMILES,inhibition of growth at 0.1 ppm (Ggt [1]; [4]) [%],inhibition of growth at 1 ppm (Ggt [1]; [5]) [%],inhibition of growth at 10 ppm (Ggt [1]; [6]) [%],other results
CCCNC(=O)/C(=N\OC(C)(C)C)c1ccccc1 [Example 1],96,100,100,inhibition of growth at 0.01 ppm (Ggt [1]; [3]): 4%; % Control of Ggt In Vivo (Ggt [2]; [7]): 71%; % Control of Ggt In Vivo (Ggt [2]; [8]): 79%
CCCNC(=O)/C(=N/OC(C)(C)C)c1ccccc1 [Example 2],27,0,0,
CCCNC(=O)/C(=N\NC(C)(C)C)c1ccccc1 [Example 3],19,89,97,% Control of Ggt In Vivo (Ggt [2]; [7]): 21%; % Control of Ggt In Vivo (Ggt [2]; [8]): 0%
CCCNC(=O)/C(=N/NC(C)(C)C)c1ccccc1 [Example 4],0,0,43,
CCCNC(=O)/C(=N\OC(C)(C)CC)c1ccccc1 [Example 5],100,100,100,inhibition of growth at 0.01 ppm (Ggt [1]; [3]): 59%
CCCNC(=O)/C(=N/OC(C)(C)CC)c1ccccc1 [Example 6],2,2,20,
CCCNC(=O)/C(=N\OC(C)(CC)CC)c1ccccc1 [Example 7],98,100,100,inhibition of growth at 0.01 ppm (Ggt [1]; [3]): 16%
CCCNC(=O)/C(=N/OC(C)(CC)CC)c1ccccc1 [Example 8],2,80,98,
CCCNC(=O)C(=NOC(C)(C)C)c1ccc(C)cc1 [Example 9],7,37,80,
CCCNC(=O)C(=NOC(C)(C)C)c1cccc(C)c1 [Example 10],5,32,80,
CCCNC(=O)C(=NOC(C)(C)C)c1ccccc1F [Example 11],0,43,77,
C=CCNC(=O)C(=NOC(C)(C)C)c1ccccc1 [Example 12],67,98,100,
C=CCNC(=O)C(=NNC(C)(C)C)c1ccccc1 [Example 13],25,96,96,
CCCNC(=O)/C(=N\OC(C)(C)C)c1cccs1 [Example 14],96,100,100,
CCCNC(=O)/C(=N/OC(C)(C)C)c1cccs1 [Example 15],10,20,94,
CCCNC(=O)C(=NOC(C)(C)C)c1ccco1 [Example 16],24,51,92,
"C=CCNC(=O)c1c([Si](C)(C)C)sc(C)c1C [Standard, reference compound]",,,,"inhibition of growth at 0.01 ppm (Ggt [1]): 100%; inhibition of growth at 0.1 ppm (Ggt [1]): 100%; inhibition of growth at 1 ppm (Ggt [1]): 100%; inhibition of growth at 10 ppm (Ggt [1]): 100%; % Control of Ggt In Vivo (Ggt [2]; 25, roots rated after 4 weeks): 90%; % Control of Ggt In Vivo (Ggt [2]; 100, roots rated after 4 weeks): 93%"
